Key:
[1] = system: Interleukin-2 (IL-2) production/release in Jurkat T cells; assay: Jurkat IL-2 Production Assay (PHA-stimulated, IL-2 AlphaLisa); format: cell-based; details: Homo sapiens, PHA 15 μg/ml, 22 h, inhibition of IL-2 production
Procedure, shortened: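 Jurkat E6-1 cells (5*10^5/well, DMEM/F12 with 10% FCS) pretreated 30 min with compound, then stimulated 22 h with 15 μg/ml PHA at 37 °C. IC50 from 8-point 1:3.16 dilution starting at 10 μM.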

CRAC channel = molecular target: T1, CRAC channel (Homo sapiens, UniProt Q96D31); assay: HEK Calcium Influx Assay (FLIPR), inhibition of store-operated Ca2+ entry after thapsigargin store depletion; format: cell-based; details: 10 μM compound, HEK293 cells, read-out: % inhib. [@ 10 μM] FLIPR
T1 construct: endogenous in cells; host or cells: HEK293 (ECACC), untransfected
T1 sequence (Q96D31 whole entry): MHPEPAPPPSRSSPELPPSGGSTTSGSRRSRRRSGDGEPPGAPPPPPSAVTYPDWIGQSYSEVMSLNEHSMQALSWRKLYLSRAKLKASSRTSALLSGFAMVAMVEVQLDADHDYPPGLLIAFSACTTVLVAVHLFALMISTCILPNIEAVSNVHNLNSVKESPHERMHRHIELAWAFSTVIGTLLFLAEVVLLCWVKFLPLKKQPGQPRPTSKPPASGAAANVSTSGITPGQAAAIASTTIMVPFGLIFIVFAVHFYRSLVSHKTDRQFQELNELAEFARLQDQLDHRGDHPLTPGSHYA
Procedure, shortened: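 HEK293 cells loaded with Calcium-4 dye in Ca2+-free HBS (pH 7.4), stores depleted with 2 μM thapsigargin for 10 min (100 μM EGTA); after 3 mM CaCl2 re-addition and 15 min steady-state, compounds added and FLIPR signal averaged 9.5–10 min post-dose. IC50 from 8-point 1:3.16 dilutions from 10 μM, normalised to DMSO and non-depleted wells.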

Row | SMILES | IC50 [1] | inhibition at 10 µM (CRAC channel)
1 | Cc1cc(S(C)(=O)=O)ncc1N1CCc2[nH]c(C3CCCOC3)cc2C1 (stereo not drawn) [Example 115, 5-(4-Methyl-6-methylsulfonyl-pyridin-3-yl)-2-tetrahydro-pyran-3-yl-4,5,6,7-tetrahydro-1H-pyrrolo[3,2-c]pyridine] | 1 to 5 µM | < 50%
2 | Cc1cc(S(=O)(=O)N2CCC2)ccc1N1CCc2[nH]c(-c3c(F)cccc3F)cc2C1 [Example 109, 5-[4-(Azetidin-1-ylsulfonyl)-2-methyl-phenyl]-2-(2,6-difluoro-phenyl)-4,5,6,7-tetrahydro-1H-pyrrolo[3,2-c]pyridine] | < 0.5 µM | < 50%
3 | Cc1cc(S(C)(=O)=O)ncc1N1CCc2[nH]c(-c3c(F)cccc3F)c(Br)c2C1 [Example 91, 3-Bromo-2-(2,6-difluoro-phenyl)-5-(4-methyl-6-methylsulfonyl-pyridin-3-yl)-4,5,6,7-tetrahydro-1H-pyrrolo[3,2-c]pyridine] | 1 to 5 µM | 50 to 70%
4 | CNS(=O)(=O)c1ccc(N2CCc3[nH]c(C4CCCCC4)cc3C2)c(C)c1 [Example 129] | 1 to 5 µM | < 50%
5 | CC(=O)c1ccc(N2CCc3[nH]c(-c4c(F)cccc4F)cc3C2)c(C)c1 [Example 82, 1-[4-[2-(2,6-Difluoro-phenyl)-4,5,6,7-tetrahydro-1H-pyrrolo[3,2-c]pyridin-5-yl]-3-methyl-phenyl]-ethanone] | 0.5 to 1 µM | > 70%
6 | Cc1ccncc1N1CCc2[nH]c(-c3c(F)cccc3F)cc2C1 [Example 10, 2-(2,6-Difluoro-phenyl)-5-(4-methyl-pyridin-3-yl)-4,5,6,7-tetrahydro-1H-pyrrolo[3,2-c]pyridine] | 1 to 5 µM | > 70%
